According to patent US20030035812A1, “Immune enhancement compositions and use thereof” (priority 2000, published 2003):

Experiments:
Sendai virus [1] = assay: Circulating antibody unit (HIU) in serum by hemagglutination inhibition (HI) reaction after vaccine administration; format: in vivo, mouse; details: 500 CIU vaccine nasally
Method: The provitamins prepared to have a composition in the following Formulation Examples 1 to 4 were individually or in combination (hereinafter referred to as “provitamin”) dissolved in a phosphate buffered saline (PBS) to a concentration of 0.5% and then continuously administered perorally or peritoneally to a mouse (ICR, 3 weeks old, male) from two weeks before the administration of a vaccine. The sample was administered such that APM per day was 80 mg/kg-body weight in the case of peroral administration and the dose per day was 40 mg/kg-body weight in the case of injection.
The vaccine used here was TR-5 strain which is an attenuated strain of Sendai virus, and 500 CIU (cell infectious unit) thereof was nasally administered to a mouse under ether anesthesia. That is, a stock solution (10^6 CIU/ml) of TR-5 strain was diluted with PBS and 50 μl of each sample was nasally administered. After the administration of vaccine, the serum was sampled in aging (inoculation day, after 7 days, after 14 days and after 21 days) and the antiviral antibody unit in the serum was measured by the hemagglutination inhibition (HI) reaction which inhibits the hemagglutination (HA) reaction.
The HA reaction is a reaction where a virus particle or an HA antigen adsorbs to an erythrocyte and combines the erythrocytes with each other to cause hemagglutination. In the measurement of the HA unit, 2-fold step dilution series of a virus solution are prepared, a constant amount of erythrocytes is added to each dilution and after the passing of a predetermined time, the agglutination image is examined. The HA unit (HAU) is the reciprocal of the highest dilution number in a test tube showing agglutination positive. The HA reaction is inhibited by previously adding an antiviral antibody to the virus solution. This is the HI reaction.
To 25 μl of a serum subjected to 2-fold step dilution, 25 μl of a virus solution adjusted to 16 HAU was added and allowed to stand at room temperature for 1 hour. Subsequently, 50 μl of a 0.5% chicken erythrocyte suspension was added and allowed to stand at 4° C. for 1 hour. Thereafter, the HI unit was determined.

macrophages = assay: Number of macrophages sampled from the abdominal cavity 14 days after vaccine inoculation; format: in vivo, mouse; details: 500 CIU vaccine, 14 days after inoculation
Method: (§1) The administration of provitamin and inoculation of a vaccine (500 CIU) were performed in the same manner as in Example 1. 14 Days after the inoculation of the vaccine, macrophages were sampled from the abdominal cavity of the mouse and the number of macrophages was counted through a microscope. Also, the activity of the macrophage was examined as follows. Fibrosarcoma SMT-5 (target cell) and the sampled macrophages (effector cell) were mixed at a ratio of 1:7 and cultured in CO2 medium for 24 hours. 8 Hours before the completion of culture, ^3H-thymidine was added and the amount of ^3H-thymidine taken up into the residual target cells was measured by a liquid scintillation counter. From the value obtained, the activity of macrophage was determined. The amount of ^3H-thymidine in the control group was the amount of ^3H-thymidine taken up into the target cells where the macrophages were not added.

Sendai virus [2] = assay: Secretory IgA induction by Sendai virus live vaccine, trachea and bronchia wash, ELISA; format: in vivo, mouse; details: 500 CIU vaccine, 14 days after inoculation
Method: The administraion of provitamin and inoculation of a vaccine were performed in the same manner as in Example 1. 14 Days after the inoculation of vaccine, the mouse was sacrificed, the trachea and bronchia were twice washed with 1 ml of PBS (phosphate buffered saline), and IgA recovered in PBS was measured by the enzyme linked immunosorbent assay (ELISA).
Sendai virus was fixed on a plate and reacted with a test solution. Thereafter, peroxidase marker anti-mouse IgA immunoglobulin was reacted and then phenylenediamine 2HCl was added to cause coloration. OD 492 was measured and from the calibration curve obtained based on the standard IgA, the IgA amount in the test solution was determined.

[3] = tested on: Fibrosarcoma SMT-5 (target cell); assay: Activity of sampled macrophages against target cells (3H-thymidine uptake); format: cell-based, mouse; details: 500 CIU vaccine, macrophages sampled day 14, target:effector 1:7, 24 hours
Method: as §1

[4] = tested on: Sendai virus strongly toxic strain; assay: Survival rate after nasal infection with Sendai virus strongly toxic strain; format: in vivo, mouse; details: challenge 15 LD50 at day 14, 20 days after infection
Method: The administration of provitamin and inoculation of a vaccine were performed in the same manner as in Example 1, and 14 days after the inoculation of attenuated vaccine, Sendai virus strongly toxic strain (1.7×10^7 CIU/ml) was subjected to 15-hold dilution in PBS. Subsequently, 70 μl of the dilution (about 8×10^4 CIU:15 LD50) was nasally infected to a mouse under ether anesthesia and 20 days after the infection with the strongly toxic strain, the survival rate of mice was examined.
The test solution was step-diluted and each dilution was used for a group of animals. The life and death were examined and the point of dilution degree where 50% of death was recognized was designated as LD50.

[5] = peritoneal administration of provitamin 40 mg/kg per day, day 0
[6] = peritoneal administration of provitamin 40 mg/kg per day, day 7
[7] = peritoneal administration of provitamin 40 mg/kg per day, day 14
[8] = peritoneal administration of provitamin 40 mg/kg per day, day 21
[9] = peroral administration of provitamin 80 mg/kg per day, day 0 after inoculation
[10] = peroral administration of provitamin 80 mg/kg per day, day 7
[11] = peroral administration of provitamin 80 mg/kg per day, day 14
[12] = peroral administration of provitamin 80 mg/kg per day, day 21
[13] = peroral, amount of vaccine inoculated 0 CIU
[14] = peroral, amount of vaccine inoculated 50 CIU
[15] = peroral, amount of vaccine inoculated 500 CIU

| Structure (SMILES) | HIU (Sendai virus [1]; [5]) [HIU] | HIU (Sendai virus [1]; [6]) [HIU] | HIU (Sendai virus [1]; [7]) [HIU] | HIU (Sendai virus [1]; [8]) [HIU] | HIU (Sendai virus [1]; [9]) [HIU] | HIU (Sendai virus [1]; [10]) [HIU] | HIU (Sendai virus [1]; [11]) [HIU] | HIU (Sendai virus [1]; [12]) [HIU] | Macrophage/Body (macrophages; peritoneal route) | Macrophage/Body (macrophages; peroral route) | IgA (Sendai virus [2]; peritoneal route) [U/μg] | IgA (Sendai virus [2]; peroral route) [U/μg] | Macrophage Activity ([3]; peritoneal route) | Macrophage Activity ([3]; peroral route) | Survival Rate ([4]; peritoneal, amount of vaccine inoculated 0 CIU) | Survival Rate ([4]; peritoneal, amount of vaccine inoculated 50 CIU) | Survival Rate ([4]; peritoneal, amount of vaccine inoculated 500 CIU) | Survival Rate [4, 13] | Survival Rate [4, 14] | Survival Rate [4, 15] |
| --- | --- | --- | --- | --- | --- | --- | --- | --- | --- | --- | --- | --- | --- | --- | --- | --- | --- | --- | --- | --- |
| O=C1O[C@H]([C@@H](O)CO)C(O)=C1OP(=O)(O)O [Formulation Example 1, L-ascorbic acid-2-monophosphate] | <16 | 16 | 32 | 64 | <16 | <16 | 16 | 64 | 9.1 × 10^6 | 6.8 × 10^6 | 69 | 51 | 22.1 | 20.5 | 0/10 | 8/10 | 8/10 | 0/10 | 9/10 | 9/10 |
| O=C1O[C@H]([C@@H](O)CO)C(O)=C1OP(=O)(O)O [Formulation Example 2, L-ascorbic acid-2-monophosphate] | <16 | <16 | 32 | 64 | <16 | <16 | 16 | 64 | – | 6.5 × 10^6 | – | 69 | – | 20.2 | – | – | – | 1/10 | 9/10 | 10/10 |
